Experiment [1] addresses human orexin-2 receptor (Homo sapiens (Human), UniProt O43614). Kind of experiment: FLIPR Ca2+ flux assay, hOX2R. It is filed as cell-based. Conditions: CHO cells expressing the human orexin-2 receptor; agonist 70 pM Ala-6,12 orexin-A. The procedure:
The utility of the compounds in accordance with the present invention as orexin receptor OX1R and/or OX2R antagonists may be readily determined without undue experimentation by methodology well known in the art, including the “FLIPR Ca^2+ Flux Assay” (Okumura et al., Biochem. Biophys. Res. Comm. 280:976-981, 2001). In a typical experiment the OX1 and OX2 receptor antagonistic activity of the compounds of the present invention was determined in accordance with the following experimental method. For intracellular calcium measurements, Chinese hamster ovary (CHO) cells expressing the rat orexin-1 receptor or the human orexin-2 receptor, are grown in Iscove's modified DMEM containing 2 mM L-glutamine, […], 1% hypoxanthine-thymidine supplement, 100 U/ml penicillin, 100 μg/ml streptomycin and 10% heat-inactivated fetal calf serum (FCS). The cells are seeded at 20,000 cells/well into Becton-Dickinson black 384-well clear bottom sterile plates coated with poly-D-lysine. All reagents were from GIBCO-Invitrogen Corp. The seeded plates are incubated overnight at 37° C. and 5% CO2. Ala-6,12 human orexin-A as the agonist is prepared as a 1 mM stock solution in 1% bovine serum albumin (BSA) and diluted in assay buffer (HBSS containing 20 mM HEPES, 0.1% BSA and 2.5 mM probenecid, pH7.4) for use in the assay at a final concentration of 70pM. Test compounds are prepared as 10 mM stock solution in DMSO, then diluted in 384-well plates, first in DMSO, then assay buffer. On the day of the assay, cells are washed 3 times with 100 μl assay buffer and then incubated for 60 min (37° C., 5% CO2) in 60 μl assay buffer containing 1 μM Fluo-4AM ester, 0.02% pluronic acid, and 1% BSA. The dye loading solution is then aspirated and cells are washed 3 times with 100 μl assay buffer. 30 μl of that same buffer is left in each well. Within the Fluorescent Imaging Plate Reader (FLIPR, Molecular Devices), test compounds are added to the plate in a volume of 25 μl, incubated for 5 min and finally 25 μl of agonist is added. Fluorescence is measured for each well at 1 second intervals for 5 minutes and the height of each fluorescence peak is compared to the height of the fluorescence peak induced by 70 pM Ala-6,12 orexin-A with buffer in place of antagonist. For each antagonist, IC50 value (the concentration of compound needed to inhibit 50% of the agonist response) is determined. Alternatively, compound potency can be assessed by a radioligand binding assay (described in Bergman et. al. Bioorg. Med. Chem. Lett. 2008, 18, 1425-1430) in which the inhibition constant (Ki) is determined in membranes prepared from CHO cells expressing either the OX1 or OX2 receptor. The intrinsic orexin receptor antagonist activity of a compound which may be used in the present invention may be determined by these assays.

In experiment [2] the target is hOX1R (orexin-1 receptor) (Homo sapiens, UniProt O43613). Kind of experiment: FLIPR Ca2+ flux assay, hOX1R. In kind it is cell-based. The note with it: CHO cells expressing the orexin-1 receptor (head: hOX1R; method: rat); agonist 70 pM Ala-6,12 orexin-A. Background: A change in cytosolic calcium serves as a functional read-out for many receptors and channels.

The structures appear in SMILES notation.

human orexin-2 receptor, sequence (O43614 whole entry): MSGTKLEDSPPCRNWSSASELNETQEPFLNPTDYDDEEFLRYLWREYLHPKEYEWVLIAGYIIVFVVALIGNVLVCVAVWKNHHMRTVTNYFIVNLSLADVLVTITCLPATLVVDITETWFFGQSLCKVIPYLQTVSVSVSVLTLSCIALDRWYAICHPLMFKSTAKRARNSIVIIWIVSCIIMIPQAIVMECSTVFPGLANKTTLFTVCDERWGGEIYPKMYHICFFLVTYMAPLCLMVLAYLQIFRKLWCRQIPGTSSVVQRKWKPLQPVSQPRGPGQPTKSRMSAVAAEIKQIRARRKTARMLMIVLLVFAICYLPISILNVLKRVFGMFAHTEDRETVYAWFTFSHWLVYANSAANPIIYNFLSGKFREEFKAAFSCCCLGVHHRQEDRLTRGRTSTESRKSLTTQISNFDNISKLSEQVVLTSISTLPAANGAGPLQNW

Take `C[C@@H]1C[C@@H](Nc2cc(C#N)ccn2)CN1C(=O)c1ccccc1-n1ncnn1` [Example 29, 2-(((3R,5R)-1-(2-(2H-tetrazol-2-yl)benzoyl)-5-methylpyrrolidin-3-yl)amino)isonicotinonitrile]: the IC50 (as a rule, the concentration needed to halve the response being measured) in experiment [1] is 0.302 µM; in experiment [2], more than 10 µM.
Regarding `COc1cccnc1N[C@@H]1C[C@@H](C)N(C(=O)c2ccccc2-n2nccn2)C1` [Example 25, (2-(2H-1,2,3-triazol-2-yl)phenyl)((2R,4R)-4-((3-methoxypyridin-2-yl)amino)-2-methylpyrrolidin-1-yl)methanone], the IC50 in experiment [1] was found to be 0.0361 µM; in experiment [2], 3.39 µM.
Take `C[C@@H]1C[C@@H](Nc2cc(C(F)F)ccn2)CN1C(=O)c1ccccc1-n1nccn1` [Example 9, (2-(2H-1,2,3-triazol-2-yl)phenyl)((2R,4R)-4-((4-(difluoromethyl)pyridin-2-yl)amino)-2-methylpyrrolidin-1-yl)methanone]: the IC50 was found to be 0.0136 µM in experiment [1] and 1.63 µM in experiment [2].
Consider `C[C@@H]1C[C@@H](Nc2ccc(F)cn2)CN1C(=O)c1ccccc1-n1nccn1` [Example 11, (2-(2H-1,2,3-triazol-2-yl)phenyl)((2R,4R)-4-((5-fluoropyridin-2-yl)amino)-2-methylpyrrolidin-1-yl)methanone], for which the values for the IC50 in experiment [1] and in experiment [2] were 0.175 µM and 6.29 µM, respectively.
Turning to `C[C@@H]1C[C@@H](Nc2cc(OCC(F)F)ccn2)CN1C(=O)c1ccccc1C1(C#N)CC1` [Example 2, 1-(2-((2R,4R)-4-((4-(2,2-difluoroethoxy)pyridin-2-yl)amino)-2-methylpyrrolidine-1-carbonyl)phenyl)cyclopropanecarbonitrile], the figures for the IC50 in experiment [1] and in experiment [2] were 0.0651 µM and 10 µM, respectively.
As for `C[C@@H]1C[C@@H](Nc2cc(C(F)F)ccn2)CN1C(=O)c1ccsc1-n1nccn1` [Example 27, (2-(2H-1,2,3-Triazol-2-yl)thiophen-3-yl)((2R,4R)-4-((4-(difluoromethyl)pyridin-2-yl)amino)-2-methylpyrrolidin-1-yl)methanone], the IC50 in experiment [1] is 0.0678 µM; in experiment [2] it was more than 10 µM.
Turning to `COc1cccnc1N[C@@H]1C[C@@H](C)N(C(=O)c2nccnc2-n2cccn2)C1` [Example 43, (3-(1H-Pyrazol-1-yl)pyrazin-2-yl)((2R,4R)-4-((3-methoxypyridin-2-yl)amino)-2-methylpyrrolidin-1-yl)methanone], the half-inhibitory concentration (IC50) in experiment [1] is 1.5 µM; in experiment [2] it was 10 µM.
In the case of `COC(=O)c1c(OC)ccnc1N[C@@H]1C[C@@H](C)N(C(=O)c2ccccc2-n2nccn2)C1` [Example 32, Methyl 2-(((3R,5R)-1-(2-(2H-1,2,3-triazol-2-yl)benzoyl)-5-methylpyrrolidin-3-yl)amino)-4-methoxynicotinate], the IC50 worked out at 0.0297 µM in experiment [1] and 6.75 µM in experiment [2].
On to `COc1cccnc1N[C@@H]1C[C@@H](C)N(C(=O)c2ccccc2-c2noc(C)n2)C1` [Example 42, ((2R,4R)-4-((3-Methoxypyridin-2-yl)amino)-2-methylpyrrolidin-1-yl)(2-(5-methyl-1,2,4-oxadiazol-3-yl)phenyl)methanone], for which the figures for the IC50 in experiment [1] and in experiment [2] were 0.5 µM and 10 µM, respectively.
For `C[C@@H]1C[C@@H](Nc2cc(C(F)(F)F)ccn2)CN1C(=O)c1ccccc1-n1nccn1` [Example 14, (2-(2H-1,2,3-triazol-2-yl)phenyl)((2R,4R)-2-methyl-4-((4-(trifluoromethyl)pyridin-2-yl)amino)pyrrolidin-1-yl)methanone] the same measures were 0.0263 µM and 1.09 µM.
For `C[C@@H]1C[C@@H](Nc2cc(F)ccn2)CN1C(=O)c1ccccc1-n1nccn1` [Example 17, (2-(2H-1,2,3-triazol-2-yl)phenyl)((2R,4R)-4-((4-fluoropyridin-2-yl)amino)-2-methylpyrrolidin-1-yl)methanone], the IC50 was 0.119 µM in experiment [1] and more than 10 µM in experiment [2].
With `C[C@@H]1C[C@@H](N(C)c2cc(C#N)ccn2)CN1C(=O)c1ccccc1-n1nccn1` [Example 23, 2-(((3R,5R)-1-(2-(2H-1,2,3-triazol-2-yl)benzoyl)-5-methylpyrrolidin-3-yl)(methyl)amino)isonicotinonitrile], the “hOX2R FLIPR IC50” value in experiment [1] is listed as 120/5. Besides, the IC50 in experiment [2] is more than 10 µM.
Consider `COc1ccnc(N[C@@H]2C[C@@H](C)N(C(=O)c3ccccc3-n3nccn3)C2)c1C#N` [Example 18, 2-(((3R,5R)-1-(2-(2H-1,2,3-triazol-2-yl)benzoyl)-5-methylpyrrolidin-3-yl)amino)-4-methoxynicotinonitrile], for which the results for the IC50 in experiment [1] and in experiment [2] were 0.167 µM and more than 10 µM, respectively.
